# Laboratory results taken from PubChem BioAssay (NCI).
#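 Step 1: Grow cells in 96-well plates. Step 2: Expose to compound for 48 hours at 5 concentrations. Step 3: Interpolate endpoints linearly; if unreached, use highest concentration. Here, GI50 denotes the concentration required for 50% inhibition of growth. At the TGI there is no net growth.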
# Assays:
# Assay in all cases: NCI tumour cell line growth inhibition, 48 h
# [1] = tested on: RXF 393 renal
# [2] = tested on: NCI-H460 lung
# [3] = tested on: NCI-H23 lung
# [4] = tested on: NCI-H522 lung
# [5] = tested on: TK-10 renal
# [6] = tested on: HOP-92 NSCLC
# [7] = tested on: MALME-3M melanoma
# [8] = tested on: SNB-19 CNS
# [9] = tested on: HL-60(TB) leukemia
# [10] = tested on: SNB-75 CNS
# [11] = tested on: CCRF-CEM leukemia
# [12] = tested on: KM12 colon
# [13] = tested on: IGROV1 ovarian
# [14] = tested on: MDA-MB-231 breast
# [15] = tested on: SN12C renal
# [16] = tested on: HCT-15 colon
# [17] = tested on: M14 melanoma
# [18] = tested on: OVCAR-8 ovarian
# [19] = tested on: SK-MEL-28 melanoma
# [20] = tested on: U251 CNS
# [21] = tested on: SR leukemia
# [22] = tested on: NCI/ADR-RES ovarian
# [23] = tested on: K-562 leukemia
# [24] = tested on: MOLT-4 leukemia
# [25] = tested on: SF-295 CNS
# [26] = tested on: A498 renal
# [27] = tested on: HCT-116 colon
# [28] = tested on: HOP-62 NSCLC
# [29] = tested on: LOX IMVI melanoma
# [30] = tested on: EKVX NSCLC
# [31] = tested on: RPMI-8226 leukemia
# [32] = tested on: MDA-MB-435
# [33] = tested on: OVCAR-4 ovarian
# [34] = tested on: SK-OV-3 ovarian
# [35] = tested on: OVCAR-3 ovarian
# [36] = tested on: NCI-H226 lung
# [37] = tested on: PC-3 prostate
# [38] = tested on: A549 NSCLC
# [39] = tested on: SK-MEL-2 melanoma
# [40] = tested on: HT29 colon
# [41] = tested on: SF-539 CNS
# [42] = tested on: MCF7 breast
# [43] = tested on: SK-MEL-5 melanoma
# [44] = tested on: DU-145 prostate
# [45] = tested on: 786-0 renal
# [46] = tested on: HS 578T breast
# [47] = tested on: T-47D breast
# [48] = tested on: UACC-62 melanoma
# [49] = tested on: SF-268 CNS
# [50] = tested on: COLO 205 colon
# [51] = tested on: BT-549 breast
# [52] = tested on: SW-620 colon
# [53] = tested on: HCC-2998 colon
compound,measurement,setting,value
C=CCn1c(SCC(=O)Nc2ccc(C(=O)/C=C/c3cc(OC)c(OC)c(OC)c3)cc2)nnc1-c1ccc(OC)cc1,GI50,[1],377 nM
same,TGI,[1],1410 nM
same,GI50,[2],698 nM
same,TGI,[2],2590 nM
same,GI50,[3],670 nM
same,TGI,[3],2660 nM
same,GI50,[4],689 nM
same,TGI,[4],3370 nM
same,GI50,[5],1600 nM
same,TGI,[5],6180 nM
same,GI50,[6],2250 nM
same,TGI,[6],16400 nM
same,GI50,[7],1890 nM
same,TGI,[7],36800 nM
same,GI50,[8],590 nM
same,TGI,[8],11800 nM
same,GI50,[9],473 nM
same,GI50,[10],311 nM
same,TGI,[10],9190 nM
same,GI50,[11],344 nM
same,TGI,[11],> 100000 nM
same,GI50,[12],315 nM
same,TGI,[12],1500 nM
same,GI50,[13],324 nM
same,TGI,[13],1900 nM
same,GI50,[14],888 nM
same,TGI,[14],29900 nM
same,GI50,[15],839 nM
same,TGI,[15],19100 nM
same,GI50,[16],277 nM
same,TGI,[16],1260 nM
same,GI50,[17],404 nM
same,TGI,[17],2580 nM
same,GI50,[18],755 nM
same,TGI,[18],10000 nM
same,GI50,[19],709 nM
same,TGI,[19],73800 nM
same,GI50,[20],289 nM
same,TGI,[20],939 nM
same,GI50,[21],255 nM
same,TGI,[21],> 46100 nM
same,GI50,[22],1450 nM
same,TGI,[22],17600 nM
same,GI50,[23],363 nM
same,TGI,[23],> 100000 nM
same,GI50,[24],378 nM
same,TGI,[24],> 100000 nM
same,GI50,[25],900 nM
same,TGI,[25],4880 nM
same,GI50,[26],1500 nM
same,TGI,[26],2910 nM
same,GI50,[27],223 nM
same,TGI,[27],520 nM
same,GI50,[28],691 nM
same,TGI,[28],1750 nM
same,GI50,[29],280 nM
same,TGI,[29],1030 nM
same,GI50,[30],1330 nM
same,TGI,[30],64000 nM
same,GI50,[31],202 nM
same,TGI,[31],680 nM
same,GI50,[32],327 nM
same,TGI,[32],1600 nM
same,GI50,[33],783 nM
same,TGI,[33],10500 nM
same,GI50,[34],1210 nM
same,TGI,[34],9960 nM
same,GI50,[35],343 nM
same,TGI,[35],1020 nM
same,GI50,[36],445 nM
same,TGI,[36],1550 nM
same,GI50,[37],642 nM
same,TGI,[37],> 100000 nM
same,GI50,[38],875 nM
same,TGI,[38],4830 nM
same,GI50,[39],2100 nM
same,TGI,[39],15400 nM
same,GI50,[40],237 nM
same,TGI,[40],532 nM
same,GI50,[41],248 nM
same,TGI,[41],666 nM
same,GI50,[42],246 nM
same,TGI,[42],3140 nM
same,GI50,[43],790 nM
same,TGI,[43],2270 nM
same,GI50,[44],453 nM
same,TGI,[44],16000 nM
same,GI50,[45],583 nM
same,TGI,[45],2610 nM
same,GI50,[46],2120 nM
same,TGI,[46],56700 nM
same,GI50,[47],455 nM
same,TGI,[47],5730 nM
same,GI50,[48],865 nM
same,TGI,[48],3780 nM
same,GI50,[49],399 nM
same,TGI,[49],11200 nM
same,GI50,[50],399 nM
same,TGI,[50],3830 nM
same,GI50,[51],209 nM
same,TGI,[51],546 nM
same,GI50,[52],397 nM
same,TGI,[52],> 47400 nM
same,GI50,[53],175 nM
same,TGI,[53],379 nM
